Measured values reported in patent US8999293B2, “Animal model of anxiety and depression” (University of Mississippi, priority 2005, dated 2015).
Where two headings read alike, the source gives them in different places.

Legend:
[1] = test system: isolated cockerels (Gallus gallus; W36); assay: Chick anxiety-depression model, drug probe studies, 120 min isolation (Example 3); details: for ED50: Gallus gallus; for isolation-induced DVoc rate during the anxiety-like phase (first five min time block) / isolation-induced DVoc rate during the depression-like phase (30-120 min) / sleep onset latency (SOL) to index sedation: IM fifteen minutes prior to testing; for isolation-induced DVoc rate during the anxiety-like phase (first five min time block) / isolation-induced DVoc rate during the depression-like phase (30-120 min): vs vehicle/isolated; for isolation-induced DVoc rate during the anxiety-like phase (first five min time block): attenuation = anxiolytic effect; for isolation-induced DVoc rate during the depression-like phase (30-120 min): increase = antidepressant effect; for sleep onset latency (SOL) to index sedation: vs vehicle/isolated chicks
Experimental: Subjects and Housing Procedures. Cockerels (Gallus gallus; W36; Cal-Maine Foods, Inc.; Mendenhall, Miss.) were received one-day posthatch and housed in 34×57×40 cm stainless steel cages with 12-13 chicks per cage. Food (Purina Start and Grow, St. Louis, Mo.) and water were available ad libitum through one quart gravity-fed feeders (Murray MacMurray; Model 4BGFJ) and waterers (Murray MacMurray; Model 4YQW0). Room temperature was maintained at 29±1° C. and overhead illumination was maintained on a 12 hr light-dark cycle. Daily maintenance, which was conducted during the first three hr of the light cycle, involved refilling the waterer, refilling the feeder, and replacement of tray liners.
Apparatus. The testing apparatus consisted of a six-unit test apparatus containing Plexiglas viewing chambers (25×25×22 cm) placed in sound-attenuating enclosures. Each unit was illuminated and heated by a 25-W light bulb. Ventilation was provided by an eight centimeter diameter rotary fan (Commonwealth Model FP-108AX 51). Miniature video cameras (SuperCircuit Model PC60XP) mounted in the sound-attenuating enclosures at floor level and routed through a Multiplexor (SuperCircuit Model PC47MC) provided televised display of the chicks for behavioral observation. Distress vocalizations (DVocs) were recorded by microphones (Lafayette Instruments Model 3-675-001) mounted in the ceilings of the Plexiglas chambers and connected to digital sound-activating relays (Lafayette Instruments Model 63040A; settings: 75% sensitivity and 0.10 s delay) that triggered electromechanical counters (Lafayette Instruments Model 58004).
Drug Probes. All experiments were conducted between five- and seven days posthatch. The groups in each experiment formed a 1×5 factorial design with a hanging control condition (n=9-12). The two vehicle control groups constituted the social separation stress manipulation. This manipulation involved placing a chick in the Plexiglas test chamber either in isolation or with two social companions for a 120 min test observation period. All drug probes were tested in the isolation condition.
Vehicle or a drug was administered IM fifteen minutes prior to testing. Dependent measures that were collected during the test session were DVocs to index separation stress and sleep onset latency (SOL) to index sedation. DVocs were defined as the vocalizations that are picked up by the electromechanical counters. SOL was defined as the time in which a chick adopts a sleep-like posture with either its chest in full contact with the floor and its eyes closed or its legs in a wide posture, its head drooping, and its eyes closed. Following each six-chick test session, the animals were returned to their home cage. After all animals were tested, they were euthanized via CO^2 asphyxiation.
Statistical Analyses. In order to discretely analyze the drug effects in the anxiety-like state and the depression-like state, the raw DVoc data were converted to a rate per min score. The anxiety-like state DVoc rate consisted of the mean DVocs per min over the first five min of the test session. The depression-like state DVoc rate consisted of the mean DVocs per min from 30 min to 120 min. Following this conversion, the DVoc rates from the anxiety-like phase and depression-like phase were analyzed with a one-way ANOVA with Fisher's LSD post hoc analysis. Plasma IL-6 concentration data were analyzed using one-way ANOVA with Fisher's LSD post hoc analysis and independent sample t-tests.

domestic fowl chicks = details: cited from earlier work; for detection of anxiolytic activity on separation-induced distress vocalizations: Feltenstein et al. 2004; for detection in the chick separation stress paradigm: Warnick et al. 2006, panic disorder vs generalized anxiety disorder drugs
[2] = test system: isolated cockerels (Gallus gallus, strain W-36); assay type: in vivo; details: isolated chicks vs vehicle-isolated, chlordiazepoxide 8 mg/kg
Description: Subjects. Cockerels (Gallus gallus, strain W-36; Cal-Maine Foods, Mendenhall, Miss., USA) were obtained 1 day posthatch and housed in stainless steel cages (34×57×40 cm) at a population density of 12 chicks per cage. Food (Purina Start and Grow, St. Louis, Mo., USA) and water were available ad libitum through a 1-quart gravity-fed feeders and waterers.
Apparatus. […] The units were illuminated using 25-W light bulbs and ventilated by an 8-cmdiameter rotary fan. Miniature video cameras mounted at floor level in the corner of the enclosures allowed for animal observation. Microphones that mounted at the ceiling of the Plexiglas chamber were connected to digital sound-activating relays, which activated electromechanical counters. A white noise generator provided room masking noise.
Procedure. Tests were conducted at either Day 4, 5, or 6 posthatch. Groups formed a single factorial design with a hanging control that included two vehicle-control groups in which chicks were tested in either an isolated or social condition, and two drug groups under the isolation condition. The vehicle was 0.9% physiological saline and the drug probes were chlordiazepoxide (8 mg/kg) and imipramine (15 mg/kg). Sample sizes were n=12 per cell. […]
Statistics. Data were analyzed using one- and two-way repeated measures analysis of variance (ANOVA) and one-way simple effects ANOVA. […]

[3] = test system: Black Australorp chicks (stress-vulnerable); assay: Chick anxiety-depression model, 90 min isolation, Black Australorp strain (Example 5); details: data not shown
[4] = read-out: ED50 AD Effect (40-60 min time block)
[5] = read-out: ED50 AD Effect (60-80 min time block)
[6] = read-out: ED50 AD Effect (80-100 min time block)
[7] = read-out: ED50 AD Effect (100-120 min time block)

CNCCC(Oc1ccc(C(F)(F)F)cc1)c1ccccc1 (centres unmarked) [Fluoxetine, fluoxetine]
ED50 [1, 4]: 16.5 mg/kg
ED50 [1, 5]: 13.3 mg/kg
ED50 [1, 6]: 14 mg/kg
ED50 [1, 7]: 14 mg/kg
isolation-induced DVoc rate during the anxiety-like phase (first five min time block) [1]: none of the doses of fluoxetine attenuated DVocs
isolation-induced DVoc rate during the depression-like phase (30-120 min) [1]: significant exacerbation of the DVoc rate in the 1 mg/kg, 10 mg/kg and 20 mg/kg doses

CN1[C@@H]2C[C@@H](OC(=O)[C@H](CO)c3ccccc3)C[C@H]1[C@@H]1O[C@@H]12 [scopolamine]
detection of anxiolytic activity on separation-induced distress vocalizations (domestic fowl chicks): insensitive

CN(C)CCCN1c2ccccc2CCc2ccccc21 [Imipramine, imipramine]
detection of anxiolytic activity on separation-induced distress vocalizations (domestic fowl chicks): successful detection
detection in the chick separation stress paradigm (domestic fowl chicks): selectively detected
ED50 [1, 4]: 10 mg/kg
ED50 [1, 5]: 8.5 mg/kg
ED50 [1, 6]: 9.1 mg/kg
ED50 [1, 7]: 7.6 mg/kg
isolation-induced DVoc rate during the anxiety-like phase (first five min time block) [1]: significant attenuation of the separation-induced DVoc rate at the 10 mg/kg and 15 mg/kg doses
isolation-induced DVoc rate during the depression-like phase (30-120 min) [1]: significant exacerbation of the DVoc rate in the 1 mg/kg, 3 mg/kg and 15 mg/kg doses (p^s<0.005) and a marginally significant exacerbation in the 10 mg/kg dose condition
distress vocalizations (DVocs) at the first five minute time block ([2]; IP 15 minute before tests, imipramine 15 mg/kg): attenuated DVocs
DVoc rates at the 20 minute block and beyond ([2]; imipramine 15 mg/kg IP): enhanced DVoc rates

NNCCc1ccccc1 [phenelzine]
detection in the chick separation stress paradigm (domestic fowl chicks): selectively detected

Cc1nnc2n1-c1ccc(Cl)cc1C(c1ccccc1)=NC2 [alprazolam]
detection in the chick separation stress paradigm (domestic fowl chicks): selectively detected

CCCC(C)(COC(N)=O)COC(N)=O [meprobamate]
detection of anxiolytic activity on separation-induced distress vocalizations (domestic fowl chicks): successful detection

Clc1cccc(Cl)c1N=C1NCCN1 [clonidine]
detection of anxiolytic activity on separation-induced distress vocalizations (domestic fowl chicks): successful detection
detection in the chick separation stress paradigm (domestic fowl chicks): selectively detected
sleep onset latency (SOL) to index sedation [1]: significant SOL reduction in the 0.15 mg/kg and 0.20 mg/kg doses (p^s<0.05) and a marginally significant reduction in the 0.25 mg/kg dose
isolation-induced DVoc rate during the anxiety-like phase (first five min time block) [1]: significant attenuation of the separation-induced DVoc rate at all doses
isolation-induced DVoc rate during the depression-like phase (30-120 min) [1]: did not reveal a significant effect

CCCC(C)C1(CC)C(=O)NC(=O)NC1=O (centres unmarked) [pentobarbital]
detection of anxiolytic activity on separation-induced distress vocalizations (domestic fowl chicks): successful detection

O=C(CCCN1CCC(O)(c2ccc(Cl)cc2)CC1)c1ccc(F)cc1 [haloperidol]
detection of anxiolytic activity on separation-induced distress vocalizations (domestic fowl chicks): insensitive

CC(N)Cc1ccccc1 (centres unmarked) [amphetamine]
detection of anxiolytic activity on separation-induced distress vocalizations (domestic fowl chicks): insensitive

O=c1n(CCCN2CCN(c3cccc(Cl)c3)CC2)nc2ccccn12 [trazodone]
detection in the chick separation stress paradigm (domestic fowl chicks): insensitive

O=C1CC2(CCCC2)CC(=O)N1CCCCN1CCN(c2ncccn2)CC1 [buspirone]
detection in the chick separation stress paradigm (domestic fowl chicks): insensitive

CNCCCC12CCC(c3ccccc31)c1ccccc12 [Maprotiline, maprotiline]
ED50 ([1]; read-out: ED50 AD Effect (20-40 min time block)): 17.2 mg/kg
ED50 [1, 4]: 14 mg/kg
ED50 [1, 5]: 14.9 mg/kg
ED50 [1, 6]: 13.6 mg/kg
ED50 [1, 7]: 14.6 mg/kg
isolation-induced DVoc rate during the anxiety-like phase (first five min time block) [1]: significant attenuation of the separation-induced DVoc rate at the 20 mg/kg dose
isolation-induced DVoc rate during the depression-like phase (30-120 min) [1]: the three lowest doses (2.5 mg/kg, 5 mg/kg, and 10 mg/kg) exacerbated DVocs

CNC1(c2ccccc2Cl)CCCCC1=O (centres unmarked) [Ketamine, ketamine]
antidepressant activity, follow-up study with ketamine at lower doses ([3]; Black Australorps): failed to see antidepressant activity in either strain
ataxia ([3]; highest dose tested, strain not specified): transient (5-10 min) ataxia

CNC1=Nc2ccc(Cl)cc2C(c2ccccc2)=[N+]([O-])C1 [chlordiazepoxide]
sleep onset latency (SOL) to index sedation [1]: significant SOL reduction in the 10 mg/kg dose

CN(C)CCCN1c2ccccc2Sc2ccc(Cl)cc21 [chlorpromazine]
detection of anxiolytic activity on separation-induced distress vocalizations (domestic fowl chicks): insensitive
